Measured values taken from patent US12673039B2, “Methods of inducing autophagy using coumarin derivatives and related compounds” (Buck Institute for Research on Aging, priority 2019, dated 2026).

Test system: HLH-30
Assay: HLH-30 expression and activity in C. elegans (GFP reporter, immunoblot, qRT-PCR)
Type: in vivo
Conditions: for HLH-30:GFP protein by immunoblot: MAH235 young adult worms
Procedure: FIG. 9A-9B illustrates that coumarin 106 (“C1”. “AIC106”) induces TFEB (HLH-30) signaling in C. elegans. FIG. 9A) Nuclear TFEB homologue HLH-30 levels in HLH-30 GFP tagged worms grown from day 1 at 20° C. as a measure of TFEB activation. Values are reported as average GFP intensity visualized at a young adult stage, day-5; **p<0.0002 versus control. FIG. 9B) TFEB mRNA levels by qPCR following 24 hrs of C1 treatment (10 μM 20 μM) in worms+/−HLH30 RNAi. Values represent RNA levels versus DMSO-only control RNAi; *p<0.001 versus control RNAi.
FIG. 18, panels A-F: AIC106 (Autophagy Inducing Coumarin-106) induces transcription of TFEB and its targets in vitro in rat N27 neuronal cells and in vivo in C. elegans. Panel A) Relative fold change in TFEB promoter activity compared to DMSO-control was determined by quantifying luciferase activity in supernatants collected from rat N27 neuronal cells post-24 hour treatment with C1 (AIC106), D1 and D2. [n=3 independent experiments (mean±SEM), **p<0.01, by one-way ANOVA with Dunnett's multiple comparisons test]. Panel B) Chemical structure of AIC106 and its structural derivative D1 and D2. Panel C) Relative fold change in mRNA of tfeb and its targets compared to DMSO-control were quantified using qRT-PCR in N27 neuronal cells post-24 hour treatment with AIC106 [N=3 independent experiments (mean±SD). *p<0.05, **p<0.01 and ****p<0.0001, by two-way ANOVA with Sidak's multiple comparisons test]. Panel D) Changes in HLH-30 expression were measured by quantifying GFP intensity in an individual GFP-tagged HLH-30 strain (MAH235) post-24 hours treatment with AIC106 and DMSO-control. [N=3 independent experiments (mean±SD). ****p<0.0001, by unpaired t-test]. Panel E) HLH-30; GFP (MAH235) were monitored by fluorescence microscopy. Panel F) Relative fold change in mRNA of hlh-30 and its targets compared to DMSO-control were quantified using qRT-PCR in young adult wild type N2 worms post-24 hours treatment with AIC106. [N=3 independent experiments (mean±SD). *p<0.05, **p<0.01 and ***p<0.001, by two-way ANOVA with Sidak's multiple comparisons test].
FIG. 22, panels A-H: AIC106-induced HLH-30 expression is mediated by the nuclear hormone receptor DAF-12. Panel A) The upstream promoter region (2 kB) of hlh-30 was analyzed by JASPAR CORE database to determine DAF-12 binding sites (1: SEQ ID NO:1, 2: 1: SEQ ID NO:2, 3: SEQ ID NO:3, 4: SEQ ID NO:4, 5: SEQ ID NO:5, 6: SEQ ID NO:6, 7: SEQ ID NO:7, 8: SEQ ID NO:8, 9: SEQ ID NO:9, 10: SEQ ID NO:10, 11: SEQ ID NO:11, 12: SEQ ID NO:12). Panel B) Relative fold change in mRNA of hlh-30 compared to DMSO-control was quantified using qRT-PCR in young adult wild-type N2 and daf-12(rh61rh411) worms post-24 hours treatment with AIC106. [N=3 independent experiments (mean±SD). **p<0.01, by one-way ANOVA with Sidak's multiple comparisons test]. Panel C) Effects of AIC106 on DAF-12 activity was determined in a mammalian one-hybrid assay by quantifying changes in the luciferase activity of DAF-12 ligand (dafachronic acid, DA) induced treatment. [N=3 independent experiments (mean±SD). *p<0.05 **p<0.01 and ***p<0.001, by one-way ANOVA with Tukey's multiple comparisons test]. Panel D) Schematic diagram showing that addition of AIC106 or inhibition of DAF-12 ligand synthesis, which leads to un-liganded DAF-12 may result in enhanced HLH-30 expression. Panel E) Dafadine-A (DFA), a specific inhibitor of key enzyme required for synthesis of DAF-12 ligand induces HLH-30 expression. Immunoblot for GFP was performed on protein lysate of HLH-30; GFP (MAH235) young adult worms treated with DFA or DMSO-control for 24 hours. Panel F) Protection against mitochondrial toxin (FCCP) was determined by quantifying survival of young adult worms treated 24 hours with DFA or DMSO-control. [N=3 independent experiments (mean±SD). **p<0.01, by two-way ANOVA with Tukey's multiple comparisons test]. […]

Row | SMILES | activity and expression of HLH-30 (Example 1 (FIG. 9)) | HLH-30 expression (GFP intensity) (GFP-tagged HLH-30 strain MAH235, 24 hours) | HLH-30:GFP protein by immunoblot (24 hours) | HLH-30 expression (hlh-30 mRNA) (daf-12(rh61rh411) null mutant) | mRNA levels of HLH-30 target genes (wild type N2 worms, 24 hours)
1 | O=c1oc2c3c4c(cc2c2c1CCC2)CCCN4CCC3 [C1, 2,3,6,7,10,11-Hexahydro-1H,5H-cyclopenta(3,4)(1)benzopyrano(6,7,8-ij)quinolizin-12(9H)-one] | induction of activity and expression of the worm TFEB homologue HLH-30 | induces HLH-30 expression in worms | increase in HLH-30:GFP protein | failed to induce HLH-30 expression | mRNA levels of several HLH-30 target genes were also increased
2 | Cc1cccc(C)c1OCc1cc(C(=O)N2CCC(c3ccncc3)CC2)no1 [DFA, dafadine-A, reference compound] | – | – | significant increase in HLH-30 expression | – | –
